Data on 27 compounds can be found in US20080176862A1, “New Compounds 617” (ASTRAZENECA AB, priority 2006, published 2008).

Where a name gives a salt, the structure may show the parent alone.

T1 sequence (P56817 22-460): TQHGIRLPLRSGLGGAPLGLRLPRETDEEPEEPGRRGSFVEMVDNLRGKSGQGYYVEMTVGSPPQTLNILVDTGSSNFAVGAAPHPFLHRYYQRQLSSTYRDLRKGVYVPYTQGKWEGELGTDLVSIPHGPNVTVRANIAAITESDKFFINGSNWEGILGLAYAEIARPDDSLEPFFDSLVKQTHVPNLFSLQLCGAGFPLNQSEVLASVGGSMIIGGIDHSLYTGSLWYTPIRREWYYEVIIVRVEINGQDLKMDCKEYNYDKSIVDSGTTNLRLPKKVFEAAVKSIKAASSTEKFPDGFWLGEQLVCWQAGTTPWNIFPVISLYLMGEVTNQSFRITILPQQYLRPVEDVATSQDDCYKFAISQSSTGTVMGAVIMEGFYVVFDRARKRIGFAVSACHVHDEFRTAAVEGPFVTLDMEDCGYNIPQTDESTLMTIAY

This test addresses T1, human β-Secretase (soluble part, AA1-AA460; sBACE-Fc) (Homo sapiens, UniProt P56817).
T1 construct: The soluble part of the human β-Secretase (AA1-AA460) was cloned into the ASP2-Fc10-1-IRES-GFP-neoK mammalian expression vector; made in house
In words: TR-FRET assay. The conditions noted are these: substrate (Europium)CEVNLDAEFK(Qsy7) 100 nM, pH 4.5, 15 min at RT; read-out: IC50 (nM) in TR-FRET assay. Format: biochemical. Background: In TR-FRET formats the signal depends on donor and acceptor labels being close together.
By IC50 is commonly meant the concentration at which inhibition is half-maximal. For `CN1C(=O)C(c2ccc(OS(=O)(=O)c3ccccc3)cc2)(c2ccc(F)c(-c3cncnc3)c2)N=C1N` (stereo not drawn) [Example 185, 4-[2-Amino-4-(4-fluoro-3-pyrimidin-5-ylphenyl)-1-methyl-5-oxo-4,5-dihydro-1H-imidazol-4-yl]phenyl benzenesulfonate hydrochloride], the IC50 was found to be 19 nM.
Take `CC(C)S(=O)(=O)Oc1cccc(C2(c3ccc(F)c(-c4cc(Cl)cc(Cl)c4)c3)N=C(N)N(C)C2=O)c1` (stereo not drawn) [Example 109, 3-[2-Amino-4-(3′,5′-dichloro-6-fluorobiphenyl-3-yl)-1-methyl-5-oxo-4,5-dihydro-1H-imidazol-4-yl]phenyl propane-2-sulfonate]: the IC50 is 263 nM.
As to `COc1ccnc(-c2cc(C3(c4cccc(OS(C)(=O)=O)c4)N=C(N)N(C)C3=O)ccc2F)n1` (stereo not drawn) [Example 7, 3-{2-Amino-4-[4-fluoro-3-(4-methoxypyrimidin-2-yl)phenyl]-1-methyl-5-oxo-4,5-dihydro-1H-imidazol-4-yl}phenyl methanesulfonate 0.5 acetate], the IC50 came to 1200 nM.
The result for `CN1C(=O)C(c2ccc(OS(=O)(=O)C(F)(F)F)cc2)(c2ccc(F)c(-c3cnccn3)c2)N=C1N` (stereo not drawn) [Example 143, 4-[2-Amino-4-(4-fluoro-3-pyrazin-2-ylphenyl)-1-methyl-5-oxo-4,5-dihydro-1H-imidazol-4-yl]phenyl trifluoromethanesulfonate 0.5 acetate] reads 214 nM; that for `CN1C(=O)C(c2ccc(OS(=O)(=O)C(F)(F)F)cc2)(c2ccc(F)c(-c3cc(Cl)ccn3)c2)N=C1N` (stereo not drawn) [Example 149, 4-{2-Amino-4-[3-(4-chloropyridin-2-yl)-4-fluorophenyl]-1-methyl-5-oxo-4,5-dihydro-1H-imidazol-4-yl}phenyl trifluoromethanesulfonate 0.75 acetate], 163 nM; that for `CN1C(=O)C(c2ccc(OS(=O)(=O)C(F)(F)F)cc2)(c2ccc(F)c(-c3cncs3)c2)N=C1N` (stereo not drawn) [Example 187, 4-{2-Amino-4-[4-fluoro-3-(1,3-thiazol-5-yl)phenyl]-1-methyl-5-oxo-4,5-dihydro-1H-imidazol-4-yl}phenyl trifluoromethanesulfonate hydrochloride], 459 nM.
As to `CN1C(=O)C(c2ccc(OS(C)(=O)=O)cc2)(c2ccnc(-c3cccc(C#N)c3)c2)N=C1N` (stereo not drawn) [Example 34, 4-{2-Amino-4-[2-(3-cyanophenyl)pyridin-4-yl]-1-methyl-5-oxo-4,5-dihydro-1H-imidazol-4-yl}phenyl methanesulfonate 0.25 acetate], the IC50 is 924 nM.
The result for `CN1C(=O)C(c2cccc(OS(C)(=O)=O)c2)(c2ccc(F)c(-c3cncnc3)c2)N=C1N` (stereo not drawn) [Example 94, 3-[2-Amino-4-(4-fluoro-3-pyrimidin-5-ylphenyl)-1-methyl-5-oxo-4,5-dihydro-1H-imidazol-4-yl]phenyl methanesulfonate] reads 472 nM; that for `CN1C(=O)C(c2cccc(OS(=O)(=O)c3c(Cl)nc4sccn34)c2)(c2ccc(F)c(Br)c2)N=C1N` (stereo not drawn) [Example 233, 3-[2-Amino-4-(3-bromo-4-fluorophenyl)-1-methyl-5-oxo-4,5-dihydro-1H-imidazol-4-yl]phenyl 6-chloroimidazo[2,1-b][1,3]thiazole-5-sulfonate], 321 nM; that for `CN1C(=O)C(c2cccc(OS(=O)(=O)N(C)C)c2)(c2ccc(F)c(-c3cc(Cl)cc(Cl)c3)c2)N=C1N` (stereo not drawn) [Example 113, 3-[2-Amino-4-(3′,5′-dichloro-6-fluorobiphenyl-3-yl)-1-methyl-5-oxo-4,5-dihydro-1H-imidazol-4-yl]phenyl dimethylsulfamate], 121 nM.
In the case of `COc1cccc(-c2ccnc(C3(c4ccc(OS(C)(=O)=O)cc4)N=C(N)N(C)C3=O)c2)c1` (stereo not drawn) [Example 296, 4-{2-Amino-4-[4-(3-methoxyphenyl)pyridin-2-yl]-1-methyl-5-oxo-4,5-dihydro-1H-imidazol-4-yl}phenyl methanesulfonate 0.25 acetate], the half-maximal inhibitory concentration (IC50) was 1350 nM.
Turning to `CN1C(=O)C(c2cccc(OS(=O)(=O)C(F)(F)F)c2)(c2cccc(C3=CCCC3)c2)N=C1N` (stereo not drawn) [Example 197, 3-[2-Amino-4-(3-cyclopent-1-en-1-ylphenyl)-1-methyl-5-oxo-4,5-dihydro-1H-imidazol-4-yl]phenyl trifluoromethanesulfonate hydrochloride], the IC50 came out at 721 nM.
As to `CN1C(=O)C(c2cccc(OS(=O)(=O)c3ccccc3)c2)(c2ccc(F)c(-c3cncnc3)c2)N=C1N` (stereo not drawn) [Example 133, 3-[2-Amino-4-(4-fluoro-3-pyrimidin-5-ylphenyl)-1-methyl-5-oxo-4,5-dihydro-1H-imidazol-4-yl]phenyl benzenesulfonate hydrochloride], the IC50 stood at 33 nM.
Take `COc1ccc(F)c(-c2cncc(C3(c4ccc(OS(C)(=O)=O)cc4)N=C(N)N(C)C3=O)c2)c1` (stereo not drawn) [Example 21, 4-{2-Amino-4-[5-(2-fluoro-5-methoxyphenyl)pyridin-3-yl]-1-methyl-5-oxo-4,5-dihydro-1H-imidazol-4-yl}phenyl methanesulfonate 0.5 acetate]: the IC50 stood at 1910 nM.
The result for `CN1C(=O)C(c2cccc(OS(=O)(=O)c3ccc(-n4cccn4)cc3)c2)(c2ccc(F)c(Br)c2)N=C1N` (stereo not drawn) [Example 227, 3-[2-Amino-4-(3-bromo-4-fluorophenyl)-1-methyl-5-oxo-4,5-dihydro-1H-imidazol-4-yl]phenyl 4-(1H-pyrazol-1-yl)benzenesulfonate] reads 1460 nM.
Regarding `CCC(C)(C)c1ccc(S(=O)(=O)Oc2cccc(C3(c4ccc(F)c(-c5cncnc5)c4)N=C(N)N(C)C3=O)c2)cc1` (stereo not drawn) [Example 234, 3-[2-Amino-4-(4-fluoro-3-pyrimidin-5-ylphenyl)-1-methyl-5-oxo-4,5-dihydro-1H-imidazol-4-yl]phenyl 4-(1,1-dimethylpropyl)benzenesulfonate], the IC50 turned out to be 82 nM.
Consider `CN1C(=O)C(c2cccc(OS(C)(=O)=O)c2)(c2ccc(F)c(-c3cccnc3F)c2)N=C1N` (stereo not drawn) [Example 88, 3-{2-Amino-4-[4-fluoro-3-(2-fluoropyridin-3-yl)phenyl]-1-methyl-5-oxo-4,5-dihydro-1H-imidazol-4-yl}phenylmethanesulfonate], for which the IC50 was determined as 234 nM.
The value for `COc1cc(OS(C)(=O)=O)cc(-c2cccc(C3(c4ccc(OC(F)F)cc4)N=C(N)N(C)C3=O)c2)c1` (stereo not drawn) [Example 63, 3′-{2-Amino-4-[4-(difluoromethoxy)phenyl]-1-methyl-5-oxo-4,5-dihydro-1H-imidazol-4-yl}-5-methoxybiphenyl-3-yl methanesulfonate 0.25acetate] was 18 nM; that for `CN1C(=O)C(c2ccc(F)c(-c3cc(Cl)cc(OS(C)(=O)=O)c3)c2)(C2CCOCC2)N=C1N` (stereo not drawn) [Example 193, 5′-[2-Amino-1-methyl-5-oxo-4-(tetrahydro-2H-pyran-4-yl)-4,5-dihydro-1H-imidazol-4-yl]-5-chloro-2′-fluorobiphenyl-3-yl methanesulfonate hydrochloride] was 1180 nM; that for `COc1cccc(-c2cc(C3(c4cccc(OS(=O)(=O)N(C)C)c4)N=C(N)N(C)C3=O)ccc2F)c1` (stereo not drawn) [Example 112, 3-[2-Amino-4-(6-fluoro-3′-methoxybiphenyl-3-yl)-1-methyl-5-oxo-4,5-dihydro-1H-imidazol-4-yl]phenyl dimethylsulfamate] was 150 nM.
Regarding `CN1C(=O)C(c2ccc(OS(C)(=O)=O)cc2)(c2ccc(F)c(-c3cnccc3Cl)c2)N=C1N` (stereo not drawn) [Example 169, 4-{2-amino-4-[3-(4-chloropyridin-3-yl)-4-fluorophenyl]-1-methyl-5-oxo-4,5-dihydro-1H-imidazol-4-yl}phenyl methanesulfonate hydrochloride], the IC50 came out at 171 nM.
Take `CN1C(=O)C(c2cccc(OS(=O)(=O)c3ccc4c(c3)oc(=O)n4C)c2)(c2ccc(F)c(Br)c2)N=C1N` (stereo not drawn) [Example 229, 3-[2-Amino-4-(3-bromo-4-fluorophenyl)-1-methyl-5-oxo-4,5-dihydro-1H-imidazol-4-yl]phenyl 3-methyl-2-oxo-2,3-dihydro-1,3-benzoxazole-6-sulfonate]: the IC50 is 299 nM.
Take `CCN1C(=O)C(c2ccc(OS(C)(=O)=O)cc2)(c2ccc(F)c(-c3cccc(Cl)c3)c2)N=C1N` (stereo not drawn) [Example 164, 4-[2-Amino-4-(3′-chloro-6-fluorobiphenyl-3-yl)-1-ethyl-5-oxo-4,5-dihydro-1H-imidazol-4-yl]phenyl methanesulfonate]: the IC50 was found to be 912 nM.
The value for `CCc1cc(C2(c3ccc(F)c(-c4cc(Cl)cc(OS(C)(=O)=O)c4)c3)N=C(N)N(C)C2=O)cc(CC)n1` (stereo not drawn) [Example 210, 5′-[2-Amino-4-(2,6-diethylpyridin-4-yl)-1-methyl-5-oxo-4,5-dihydro-1H-imidazol-4-yl]-5-chloro-2′-fluorobiphenyl-3-yl methanesulfonate hydrochloride] was 137 nM; that for `CN1C(=O)C(c2cccc(OS(=O)(=O)c3ccc4c(c3)CCC4)c2)(c2ccc(F)c(-c3cncnc3)c2)N=C1N` (stereo not drawn) [Example 239, 3-[2-Amino-4-(4-fluoro-3-pyrimidin-5-ylphenyl)-1-methyl-5-oxo-4,5-dihydro-1H-imidazol-4-yl]phenyl indane-5-sulfonate] was 19 nM; that for `CN1C(=O)C(c2ccc(OC(F)F)cc2)(c2ccc(F)c(-c3cc(C#N)cc(OS(C)(=O)=O)c3)c2)N=C1N` (stereo not drawn) [Example 70, 5′-{2-Amino-4-[4-(difluoromethoxy)phenyl]-1-methyl-5-oxo-4,5-dihydro-1H-imidazol-4-yl}-5-cyano-2′-fluorobiphenyl-3-yl methanesulfonate hydrochloride] was 2420 nM.
The result for `COc1cccc(-c2cc(C3(c4cccc(OS(C)(=O)=O)c4)N=C(N)N(C)C3=O)ccc2F)c1` (stereo not drawn) [Example 93, 3-[2-Amino-4-(6-fluoro-3′-methoxybiphenyl-3-yl)-1-methyl-5-oxo-4,5-dihydro-1H-imidazol-4-yl]phenyl methanesulfonate] reads 146 nM.
